# Data published in patent US5120730A, “Benzothiazepine esters, their preparation and formulations for therapeutic use” (IdB Holding SpA, priority 1990, dated 1992).
# Entries after “also recorded” stand apart in the source; their conditions may differ. Read-outs that look alike come from different tables or passages of the source.
# Tests used:
# [1] = tested on: isolated guinea pig atria; assay: Isolated guinea pig atria: force and frequency of spontaneous contractions; parameters: species or system guinea pig (Hartley-Dunkin); settings: for inhibition at 10 µM / activation at 10 µM / IC25: Cavia porcellus; for inhibition at 10 µM: read-out: negative chronotropic effect; for activation at 10 µM: read-out: positive inotropic effect; for activity on force and frequency of the contractions (in words) / IC25: isolated guinea pig atria; for IC25: n = 6
# Procedure: 1. The atria taken from Hartley-Dunkin guinea pigs of average weight 400-450 g were placed in an isolated organ bath of 15 ml containing a physiological Krebs solution (J. C. Doxey et al., Br. J. Pharmac. 78, 498, 1983) at a temperature of 30°±0.5° and oxygenated by means of a gaseous mixture composed of 95% of O2 and 5% of CO2. The force and frequency of the spontaneous contractions (T. De Gubareff and W. Sleaton Jr., J. Pharm. Exp. Ther., 148, 202, 1965) were recorded by means of an isometric force transducer. The concentration of product required to reduce the contraction force and frequency by 25% (IC25) and the relevant pIC25 were calculated.
# isolated rat portal vein = assay: Isolated rat portal vein: force of spontaneous contraction; parameters: species or system rat (Sprague-Dawley); settings: for selectivity, isolated vessels vs atria (in words): comparison of rat portal vein with guinea pig atria; for inhibition of contraction force (in words) / IC50: isolated rat portal vein; for IC50: 50% reduction of contraction force, n = 6, read-out: Contraction force pIC50 (converted)
# Text: 2. 2-3 cm strips of portal vein were taken from Sprague-Dawley rats of 220-250 g weight.
# [2] = rats
# Text: (§1) Sprague-Dawley rats of both sexes (5 male+5 female) were used for each experimental group.
# in vivo = settings: rat
# Text: as §1
# [3] = Haemodynamics in anaesthetized rats; type: in vivo, rat (Sprague-Dawley); settings: for change in BP (systemic arterial pressure) / change in HR (heart rate) / change in LVP (left intraventricular pressure) / change in dp/dt: n = 6
# Procedure: Male Sprague-Dawley rats of average weight 350-400 g, anaesthetized with sodium pentobarbital in an intraperitoneal dose of 60 mg/kg, underwent cannulation for measuring the following parameters: systemic arterial pressure (BP), heart rate (HR) left intraventricular pressure (LVP) and dp/dt.
# After recording of the baseline values, the substances were injected by the intravenous route within a time of 30 seconds. The changes in the parameters indicated above were measured at times of 0.5-2-10 and 20 minutes.
compound,measurement,setting,value
"COc1ccc([C@@H]2Sc3ccccc3N(CCN(C)C)C(=O)[C@@H]2OC(=O)CCC(=O)O[C@H]2C(=O)N(CCN(C)C)c3ccccc3S[C@H]2c2ccc(OC)cc2)cc1 (relative stereo) [Ib, 3,3'-[(1,4-dioxo-1,4-butanediyl)-bis(oxy)] bis[(+)-cis-5-[2-(dimethylamino)ethyl]-2,3-dihydro-2-(4-methoxyphenyl)-1,5-benzothiazepin-4(5H)-one]]",inhibition at 10 µM,[1],5%
same,activation at 10 µM,[1],12%
same,activity on force and frequency of the contractions (in words),[1],virtually inactive; also recorded: free of the negative chronotropic and inotropic effects
same,"selectivity, isolated vessels vs atria (in words)",isolated rat portal vein,selective activity on the isolated vessels
same,inhibition of contraction force (in words),isolated rat portal vein,antagonize the contraction force in a dose-dependent manner; also recorded: significantly inhibit the contraction force
same,IC50,isolated rat portal vein,2340 nM
same,"toxicity versus diltiazem, intraperitoneal (in words)",[2],less toxic than the reference product
same,"toxicity versus diltiazem, oral (in words)",[2],LD50 comparable with that of diltiazem
same,LD50 at 336 h,in vivo; ip,600 mg/kg
same,LD50 at 336 h,in vivo; po,881 mg/kg
"COc1ccc([C@@H]2Sc3ccccc3N(CCN(C)C)C(=O)[C@@H]2OC(C)=O)cc1 [Diltiazem, (+)-Cis-5-[2-(dimethylamino)ethyl]-3-acetoxy-2,3-dihydro-2-(4-methoxyphenyl)-1,5-benzothiazepin-4(5H)-one, reference compound]",IC25,"[1]; 25% reduction of contraction force, read-out: Contraction force pIC25 (converted)",513 nM
same,IC25,"[1]; 25% reduction of contraction frequency, read-out: Frequency pIC25 (converted)",355 nM
same,activity on force and frequency of the contractions (in words),[1],significant activity
same,IC50,isolated rat portal vein,813 nM
same,change in BP (systemic arterial pressure),"[3]; 0.35 μmol/kg i.v., 0.5 minutes",-21 mmHg
same,change in HR (heart rate),"[3]; 0.35 μmol/kg i.v., 0.5 minutes",-4 bpm
same,change in LVP (left intraventricular pressure),"[3]; 0.35 μmol/kg i.v., 0.5 minutes",-18 mmHg
same,change in dp/dt,"[3]; 0.35 μmol/kg i.v., 0.5 minutes",-150 mmHg/sec
same,change in BP (systemic arterial pressure),"[3]; 0.35 μmol/kg i.v., 2 minutes",-1 mmHg
same,change in HR (heart rate),"[3]; 0.35 μmol/kg i.v., 2 minutes",+6 bpm
same,change in LVP (left intraventricular pressure),"[3]; 0.35 μmol/kg i.v., 2 minutes",-1 mmHg
same,change in dp/dt,"[3]; 0.35 μmol/kg i.v., 2 minutes",-25 mmHg/sec
same,change in BP (systemic arterial pressure),"[3]; 0.35 μmol/kg i.v., 10 minutes",+6 mmHg
same,change in HR (heart rate),"[3]; 0.35 μmol/kg i.v., 10 minutes",+10 bpm
same,change in LVP (left intraventricular pressure),"[3]; 0.35 μmol/kg i.v., 10 minutes",+2 mmHg
same,change in dp/dt,"[3]; 0.35 μmol/kg i.v., 10 minutes",-17 mmHg/sec
same,change in BP (systemic arterial pressure),"[3]; 0.35 μmol/kg i.v., 20 minutes",+1 mmHg
same,change in HR (heart rate),"[3]; 0.35 μmol/kg i.v., 20 minutes",+3 bpm
same,change in LVP (left intraventricular pressure),"[3]; 0.35 μmol/kg i.v., 20 minutes",-5 mmHg
same,change in dp/dt,"[3]; 0.35 μmol/kg i.v., 20 minutes",-183 mmHg/sec
same,effect on all observed parameters (in words),[3]; 0.7 μmol/kg i.v.,significantly reduces all the observed parameters
same,effect on heart rate and contractility (in words),[3]; 0.7 μmol/kg i.v.,significant cardiodepressive effect
same,change in BP (systemic arterial pressure),"[3]; 0.70 μmol/kg i.v., 0.5 minutes",-52 mmHg
same,change in HR (heart rate),"[3]; 0.70 μmol/kg i.v., 0.5 minutes",-83 bpm
same,change in LVP (left intraventricular pressure),"[3]; 0.70 μmol/kg i.v., 0.5 minutes",-46 mmHg
same,change in dp/dt,"[3]; 0.70 μmol/kg i.v., 0.5 minutes",-658 mmHg/sec
same,change in BP (systemic arterial pressure),"[3]; 0.70 μmol/kg i.v., 2 minutes",-34 mmHg
same,change in HR (heart rate),"[3]; 0.70 μmol/kg i.v., 2 minutes",-99 bpm
same,change in LVP (left intraventricular pressure),"[3]; 0.70 μmol/kg i.v., 2 minutes",-24 mmHg
same,change in dp/dt,"[3]; 0.70 μmol/kg i.v., 2 minutes",-375 mmHg/sec
same,change in BP (systemic arterial pressure),"[3]; 0.70 μmol/kg i.v., 10 minutes",-16 mmHg
same,change in HR (heart rate),"[3]; 0.70 μmol/kg i.v., 10 minutes",-5 bpm
same,change in LVP (left intraventricular pressure),"[3]; 0.70 μmol/kg i.v., 10 minutes",-4 mmHg
same,change in dp/dt,"[3]; 0.70 μmol/kg i.v., 10 minutes",-108 mmHg/sec
same,change in BP (systemic arterial pressure),"[3]; 0.70 μmol/kg i.v., 20 minutes",+9 mmHg
same,change in HR (heart rate),"[3]; 0.70 μmol/kg i.v., 20 minutes",+7 bpm
same,change in LVP (left intraventricular pressure),"[3]; 0.70 μmol/kg i.v., 20 minutes",-7 mmHg
same,change in dp/dt,"[3]; 0.70 μmol/kg i.v., 20 minutes",-92 mmHg/sec
"COc1ccc([C@@H]2Sc3ccccc3N(CCN(C)C)C(=O)[C@@H]2OC(=O)/C=C/C(=O)O[C@H]2C(=O)N(CCN(C)C)c3ccccc3S[C@H]2c2ccc(OC)cc2)cc1 [Ia, 3,3'-[(2E)-(1,4-dioxo-1,4-butenediyl)-bis(oxy)]bis[(+)-cis-5-[2-(dimethylamino)ethyl]-2,3-dihydro-2-(4-methoxyphenyl)-1,5-benzothiazepin-4-(5H)-one]]",inhibition at 10 µM,[1],5%
same,activation at 10 µM,[1],6%
same,activity on force and frequency of the contractions (in words),[1],virtually inactive; also recorded: free of the negative chronotropic and inotropic effects
same,"selectivity, isolated vessels vs atria (in words)",isolated rat portal vein,selective activity on the isolated vessels
same,inhibition of contraction force (in words),isolated rat portal vein,antagonize the contraction force in a dose-dependent manner; also recorded: significantly inhibit the contraction force
same,IC50,isolated rat portal vein,3980 nM
same,change in BP (systemic arterial pressure),"[3]; 0.35 μmol/kg i.v., 0.5 minutes",-32 mmHg
same,change in HR (heart rate),"[3]; 0.35 μmol/kg i.v., 0.5 minutes",-19 bpm
same,change in LVP (left intraventricular pressure),"[3]; 0.35 μmol/kg i.v., 0.5 minutes",-29 mmHg
same,change in dp/dt,"[3]; 0.35 μmol/kg i.v., 0.5 minutes",-31 mmHg/sec
same,change in BP (systemic arterial pressure),"[3]; 0.35 μmol/kg i.v., 2 minutes",-16 mmHg
same,change in HR (heart rate),"[3]; 0.35 μmol/kg i.v., 2 minutes",-19 bpm
same,change in LVP (left intraventricular pressure),"[3]; 0.35 μmol/kg i.v., 2 minutes",-11 mmHg
same,change in dp/dt,"[3]; 0.35 μmol/kg i.v., 2 minutes",-20 mmHg/sec
same,change in BP (systemic arterial pressure),"[3]; 0.35 μmol/kg i.v., 10 minutes",+2 mmHg
same,change in HR (heart rate),"[3]; 0.35 μmol/kg i.v., 10 minutes",-9 bpm
same,change in LVP (left intraventricular pressure),"[3]; 0.35 μmol/kg i.v., 10 minutes",-2 mmHg
same,change in dp/dt,"[3]; 0.35 μmol/kg i.v., 10 minutes",-67 mmHg/sec
same,change in BP (systemic arterial pressure),"[3]; 0.35 μmol/kg i.v., 20 minutes",-8 mmHg
same,change in HR (heart rate),"[3]; 0.35 μmol/kg i.v., 20 minutes",-14 bpm
same,change in LVP (left intraventricular pressure),"[3]; 0.35 μmol/kg i.v., 20 minutes",-11 mmHg
same,change in dp/dt,"[3]; 0.35 μmol/kg i.v., 20 minutes",-25 mmHg/sec
same,effect on heart rate and contractility (in words),[3]; 0.7 μmol/kg i.v.,without altering the heart rate and contractility parameters
same,hypotensive activity (in words),[3]; 0.7 μmol/kg i.v.,significant and lasting hypotensive activity
same,change in BP (systemic arterial pressure),"[3]; 0.70 μmol/kg i.v., 0.5 minutes",-32 mmHg
same,change in HR (heart rate),"[3]; 0.70 μmol/kg i.v., 0.5 minutes",-19 bpm
same,change in LVP (left intraventricular pressure),"[3]; 0.70 μmol/kg i.v., 0.5 minutes",-33 mmHg
same,change in dp/dt,"[3]; 0.70 μmol/kg i.v., 0.5 minutes",-15 mmHg/sec
same,change in BP (systemic arterial pressure),"[3]; 0.70 μmol/kg i.v., 2 minutes",-33 mmHg
same,change in HR (heart rate),"[3]; 0.70 μmol/kg i.v., 2 minutes",-11 bpm
same,change in LVP (left intraventricular pressure),"[3]; 0.70 μmol/kg i.v., 2 minutes",-32 mmHg
same,change in dp/dt,"[3]; 0.70 μmol/kg i.v., 2 minutes",-20 mmHg/sec
same,change in BP (systemic arterial pressure),"[3]; 0.70 μmol/kg i.v., 10 minutes",-22 mmHg
same,change in HR (heart rate),"[3]; 0.70 μmol/kg i.v., 10 minutes",-13 bpm
same,change in LVP (left intraventricular pressure),"[3]; 0.70 μmol/kg i.v., 10 minutes",-32 mmHg
same,change in dp/dt,"[3]; 0.70 μmol/kg i.v., 10 minutes",-16 mmHg/sec
same,change in BP (systemic arterial pressure),"[3]; 0.70 μmol/kg i.v., 20 minutes",-25 mmHg
same,change in HR (heart rate),"[3]; 0.70 μmol/kg i.v., 20 minutes",-9 bpm
same,change in LVP (left intraventricular pressure),"[3]; 0.70 μmol/kg i.v., 20 minutes",-32 mmHg
same,change in dp/dt,"[3]; 0.70 μmol/kg i.v., 20 minutes",-20 mmHg/sec
same,selectivity of action (in words),[3]; conclusion from in vivo and in vitro results,selective action on the smooth vessel musculature
same,"toxicity versus diltiazem, intraperitoneal (in words)",[2],less toxic than the reference product
same,"toxicity versus diltiazem, oral (in words)",[2],less toxic
same,LD50 at 336 h,in vivo; ip,250 mg/kg
same,LD50 at 336 h,in vivo; po,> 1500 mg/kg
